Laboratory results taken from patent US20240174744A1, “METHODS OF TREATMENT USING PROTEIN BINDERS TO IRHOM2 EPITOPES” (SCIRHOM GMBH, priority 2021, published 2024).

System: PMA-induced release of TNFα from U-937 cells
Assay: ELISA-based TNFα release assay, PMA-stimulated U-937 cells
Type: cell-based
Conditions: Homo sapiens, U-937, 1 h, Batimastat 10 μM, PMA 25 ng/ml
Procedure: In contrast to Example 14 and 17, where the inhibitory effects of the antibodies of the present disclosure on LPS-induced release of endogenous TNFα from human THP-1 cells were tested, this analysis was conducted with recombinantly produced murine antibodies of the present disclosure to verify their inhibitory effects on PMA-induced release of endogenous TNFα from human monocytic U-937 cells.
In brief, on day 1, Nunc black MaxiSorp® 96-well plates (Thermo Fisher Scientific, USA) were coated overnight with 100 μl per well of mouse anti-human TNFα capture antibody (provided as part of the DuoSet ELISA kit) at 4 μg/ml TBS at 4° C. On day 2, the capture antibody solution was removed and MaxiSorp® plates were blocked with 300 μl per well of TBS, 1% BSA at room temperature for 1-2 hours. […] Using an infinite M1000 (Tecan Group, Switzerland) microplate reader, the fluorescence of each well was collected at an excitation wavelength of 435 nm and an emission wavelength of 555 nm. […]

**Q.** CNC(=O)[C@H](Cc1ccccc1)NC(=O)[C@H](CC(C)C)[C@H](CSc1cccs1)C(=O)NO [Batimastat] was tested. Which inhibition at 10 µM (murine (m) and chimeric (ch) antibodies 3 μg/ml) did it give?
**A.** 98.7%

**Q.** What about the inhibition at 10 µM (recombinant murine antibodies 1 μg/ml) of the same compound?
**A.** 100%
